{"source": "patent US10093699B2", "about": "“Peptides with antimicrobial, anticancer and/or wound-healing promoting activities, pharmaceutical compositions containing the same, and use of the peptides with antimicrobial, anticancer and/or wound-healing promoting activities” (priority 2015, dated 2018)", "key": {"HFW cells": {"test_system": "HFW cells", "assay": "Cell live image (phase-contrast and immunofluorescence), HFW", "assay_type": "cell-based, human", "settings": "12 μM, 5 minutes", "description": "PC9 and HFW cells (˜10^5 cells) were pre-seeded in 6-cm polystyrene dishes for 24 hours. Cell nuclear is labeled by 4′,6-diamidino-2-phenylindole (DAPI) with a final concentration of 10 μg/ml. After 10 minutes of incubation, the cells were washed by PBS. FITC-K4R2Nal2S1-NH2 was added to the dishes with the final concentration of 12 μM. After incubation for 5, 10, 20 minutes or 1 hour at 37° C., the cells were washed with PBS. The images of FITC-K4R2Nal2S1-NH2 in PC9 cells and HFW cells were observed using the Inverted Fluorescent Microscope Zeiss/Observer.Z1.\nTo investigate the mode of actions of K4R2Nal2-S1 peptide on human cancer cell line (PC9) and human fibroblast (HFW), cells were treated with FITC-labeled K4R2-Nal2-S1. Nucleus was labeled with DAPI, and the blue signal was observed by UV exciting light. The fluorescence distribution of FITC-labeled K4R2-Nal2-S1 peptide on cell membrane was visualized by the inverted fluorescent microscope."}, "human fibroblast (HFW)": {"test_system": "human fibroblast (HFW)", "assay": "MTT cytotoxicity to normal fibroblasts", "assay_type": "cell-based", "settings": "MTT assay", "description": "Human lung cancer line PC9 and A549, oral squamous cell carcinoma cell line OECM-1 were cultured in RPMI medium supplemented with 10% fetal bovine serum and antibiotic. Human tongue carcinoma cell line SAS, oral cancer cell line C9, and human diploid fibroblast (HFW) were cultured in DMEM medium supplemented with 10% fetal bovine serum and antibiotic. Cells were cultured in a humidified incubator containing 5% CO2 at 37° C.\nThe MTT assay was employed to determine the in vitro cytotoxicity. All cancer cell lines were seeded in 96-well plate with concentration 5000 cells/100 μl/well and incubated for 24 hours. HFW was seeded with 8000 cells/100 μl/well.\nAfter medium was removed, 100 μl fresh medium containing peptide (ranging from 50 μM to 3.13 μM, HFW was treated with 75 μM and 100 μM peptide additionally) was added to the wells. Following 3, 12 or 24 hour incubation, fresh medium with MTT (0.5 mg/ml) was replaced and incubated for 3 hours. After medium/MTT was removed, DMSO was added at 100 μl for dissolving the formazan crystal. Cell survival rate was calculated by measuring the absorbance at 540 nm using Multi-labeled Microplate Reader (VICTOR3). For cancer cells, medium mixed with H2O2 (aq) represented positive control (all cells died) while medium only represented negative control. For normal cells, medium only represented positive control (all cells lived) while medium mixed with H2O2 (aq) represented negative control (all cells died).\nThe cytotoxicities of S1 and its analogs on human lung cancer cells (i.e, PC9, PC9-G and A549), human oral cancer cells (i.e, C9, OECM-1, and SAS), and human fibroblast (HFW) were evaluated by MTT assay for 3, 12 and 24 hours."}, "[1]": {"test_system": "PC9 human lung cancer cells", "assay_type": "in vivo, male nude mice", "description": "12 male nude mice (BALB/cAnN.Cg-Foxn1nu/CrlNarl) were purchased from National Laboratory Animal Center, Taiwan.\n100 μl human lung cancer cell PC9 (3×10^6 cells) in Matrigel (Corning) was injected subcutaneously into the dorsal side of 5-week-old male nude mice. Each mouse was inoculated two sites on its back (Taguchi F, Koh Y, Koizumi F, Tamura T, Saijo N, et al. (2004) Anticancer effects of ZD6474, a VEGF receptor tyrosine kinase inhibitor, in gefitinib (“Iressa”)-sensitive and resistant xenograft models. Cancer Sci 95: 984-989.). 1 week 5 days after implantation (cancer size>95 mm^3), 12 mice were allocated randomly into two group. One group was received K4R2Nal2S1 (5 mg/Kg, dissolving in 100 μl PBS buffer) by tail vein injection three times a week, the other group was injected PBS as control.\nBody weight and cancer size were measured three times a week. The cancer volume was calculated by formula of width^2×length×0.52. The cancer volume below 100% of the pretreatment volume was defined as “cancer reduction” (Taguchi F, Koh Y, Koizumi F, Tamura T, Saijo N, et al. (2004) Anticancer effects of ZD6474, a VEGF receptor tyrosine kinase inhibitor, in gefitinib (“Iressa”)-sensitive and resistant xenograft models. Cancer Sci 95: 984-989.). “Cancer reduction” was confirmed when the mice were dissected.\nThe mice were sacrificed after treatment of 40 days, the cancers were removed, photographed, and weighed. All animal experiments were performed in accordance with the animal guidelines of the National Tsing Hua University Institutional Animal Care and approved by Animal Care Committee.\nSolid cancers were fixed in 4% formaldehyde buffer. Paraffin-embedded tissues were cut to 2 μm-thickness sections, and deparaffinized in ultraclear buffer (J.T. Baker) and graded ethanol. The morphology of cancers was obtained by Hematoxylin and eosin (H&E) stained sections. In addition, the sections were immunostained with anti-cleaved-PARP (1:100) antibody (Cell Signaling, clone number: D65E10).\nTissue images were captured using light microscope (Eclipse E400, Nikon) with digital microscopy camera (AxioCam ICc 5, ZEISS), at 40×, 200× and 400× fields.\nTo evaluate the anticancer effect of K4R2Nal2-S1 peptide in vivo, PC9 cells were implanted subcutaneously to nude mice (see FIG. 7A) and followed by K4R2-Nal2-S1 injection via the intravenous route, at a dose of 5 mg/kg, three times weekly (FIGS. 7B and 7C).\nTo examine the involvement of necrosis and apoptosis in K4R2Nal2-S1 peptide mediated anticancer effect, lung tumors generated in the xenograft mouse model were excised and analyzed by Hematoxylin and eosin (H&E) staining and immunohistochemistry for cleaved PARP, a marker for cell apoptosis."}, "HaCaT cells": {"test_system": "HaCaT cells", "assay": "Cell migration assay (in vitro wound healing assay)", "assay_type": "cell-based", "settings": "different concentrations of peptide; 12 and 24 h", "description": "HaCaT cells (40,000) suspended in DMEM medium supplemented with 10% fetal bovine serum were seeded on each side of an ibidi culture insert (ibidi, Germany). Inserts were placed into 24-well plate. After incubated at 37° C. and 5% CO2 overnight, inserts were removed and 1 ml of serum-free DMEM medium supplemented with different concentrations of peptide was added. Medium without peptide and with 100 ng/ml EGF (epidermal growth factor) were negative and positive controls. At 0, 12 and 24 h, the images of injury area were observed using the Inverted Fluorescent Microscope Zeiss/Observer.Z1 (10×). Wound area was estimated by Adobe Photoshop. The repairing rate was calculated: repairing rate=(areat0−areat12,24)/areat0, wherein t represents time."}, "[2]": {"settings": "5 mg/kg i.v., three times weekly, harvested 40 days after injection"}}, "note": "Where a SMILES comes first, the peptide text is derived from it. [ ]: non-standard residue; d: D form. 2Nal = N[C@@H](Cc1ccc2ccccc2c1)C(=O)O"}
{"smiles": "CC(=O)N[C@@H](CCCCN)C(=O)N[C@@H](CCCCN)C(=O)N[C@@H](CCCCN)C(=O)N[C@@H](CCCCN)C(=O)N[C@@H](CCCNC(=N)N)C(=O)N[C@@H](CCCNC(=N)N)C(=O)N[C@@H](Cc1ccc2ccccc2c1)C(=O)N[C@@H](Cc1ccc2ccccc2c1)C(=O)N[C@@H](CCCCN)C(=O)N[C@@H](CCCCN)C(=O)N[C@@H](Cc1c[nH]c2ccccc12)C(=O)N[C@@H](CCCNC(=N)N)C(=O)N[C@@H](CCCCN)C(=O)N[C@@H](Cc1c[nH]c2ccccc12)C(=O)N[C@@H](CC(C)C)C(=O)N[C@@H](C)C(=O)N[C@@H](CCCCN)C(=O)N[C@@H](CCCCN)C(N)=O", "note": "[K4R2-Nal2-S1, Ac-KKKKRR-Nal-Nal-KKWRKWLAKK-NH2] (Ac-KKKKRR[2Nal][2Nal]KKWRKWLAKK-NH2)", "values": [{"measurement": "cellular swelling (phase-contrast microscopy)", "setting": "HFW cells", "result": "not in HFW cells"}, {"measurement": "degrees of cytotoxicities to HFW (rank order)", "setting": "human fibroblast (HFW)", "result": "S1 peptide<K4R2-Nal2-S1 peptide<K6-Nal2-S1 peptide<Nal2-S1 peptide"}, {"measurement": "tumor growth", "setting": "[1]; 5 mg/kg i.v., three times weekly", "result": "significant inhibition"}, {"measurement": "volume of tumors harvested", "setting": "[1]; [2]", "result": "decreased"}, {"measurement": "weight of tumors harvested", "setting": "[1]; [2]", "result": "decreased"}, {"measurement": "number of exposed tumors", "setting": "[1]; 46th day after implantation, 6 mice×2 side implantation, 12 in the PBS group", "result": 7}, {"measurement": "necrosis in tumors (H&E staining)", "setting": "[1]; excised xenograft tumors", "result": "large scale of necrosis regions"}, {"measurement": "cleaved PARP expression (immunohistochemistry)", "setting": "[1]; excised xenograft tumors, next to the necrosis regions", "result": "increased expression of cleaved PARP"}, {"measurement": "wound healing (repairing rate) compared to negative control", "setting": "HaCaT cells", "result": "better effects of wound healing"}]}
